Test results: ChEMBL document CHEMBL1201862, “PubChem BioAssay data set” (2004)
The source made the active and inactive calls.

Experiments:
[1] = test system: Vero; assay: cells; assay type: functional; conditions: Chlorocebus sabaeus
[2] = microbe, parasite or virus in culture; assay type: functional; conditions: Mycobacterium tuberculosis
[3] = test system: H4; assay: Luminescence Cell-Based Dose Response HTS to Identify Activators of 5'UTR Stem-Loop Driven Prion Protein mRNA Translation in H4 Neuroglioblastoma Cells. [Related pubchem assays: 1829 (Project Summary), 1814 (Primary HTS)]; assay type: functional; conditions: Homo sapiens
[4] = test system: Vero; assay: cells; assay type: functional, cell-based; conditions: Chlorocebus sabaeus
[5] = Luminescence Cell-Based Dose Response HTS to Identify Activators of Luciferase Translation or Activity in H4 […] Cells. [Related pubchem assays: 1829 (Project Summary), 1814 (Primary HTS)]; assay type: functional
[6] = Luminescence Cell-Based Dose Confirmation HTS to Identify Activators of 5'UTR Stem-Loop Driven Alpha-Synuclein mRNA Translation in H4 Neuroglioblastoma Cells. [Related pubchem assays: 1829 (Project Summary), 1814 (Primary HTS)]; assay type: functional
[7] = Luminescence-based cell-based high throughput dose response assay to identify activators of the DAF-12 from the parasite S. stercoralis (ssDAF-12).; assay type: functional
[8] = ADAM10 protease inhibitors, dose response, selectivity assay for ADAM17 exosite inhibitor project, biochemical, FRET peptide substrate, recombinant human ADAM10 (AID 743259);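 further: ADAM10 enzyme cleaving a FRET peptide substrate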
[9] = molecular target: Disintegrin and metalloproteinase domain-containing protein 17 (Homo sapiens, UniProt P78536); assay: exosite inhibitors of ADAM17, dose response, biochemical (AID 743260)
Disintegrin and metalloproteinase domain-containing protein 17, sequence (P78536 whole entry, the tested form may be a part): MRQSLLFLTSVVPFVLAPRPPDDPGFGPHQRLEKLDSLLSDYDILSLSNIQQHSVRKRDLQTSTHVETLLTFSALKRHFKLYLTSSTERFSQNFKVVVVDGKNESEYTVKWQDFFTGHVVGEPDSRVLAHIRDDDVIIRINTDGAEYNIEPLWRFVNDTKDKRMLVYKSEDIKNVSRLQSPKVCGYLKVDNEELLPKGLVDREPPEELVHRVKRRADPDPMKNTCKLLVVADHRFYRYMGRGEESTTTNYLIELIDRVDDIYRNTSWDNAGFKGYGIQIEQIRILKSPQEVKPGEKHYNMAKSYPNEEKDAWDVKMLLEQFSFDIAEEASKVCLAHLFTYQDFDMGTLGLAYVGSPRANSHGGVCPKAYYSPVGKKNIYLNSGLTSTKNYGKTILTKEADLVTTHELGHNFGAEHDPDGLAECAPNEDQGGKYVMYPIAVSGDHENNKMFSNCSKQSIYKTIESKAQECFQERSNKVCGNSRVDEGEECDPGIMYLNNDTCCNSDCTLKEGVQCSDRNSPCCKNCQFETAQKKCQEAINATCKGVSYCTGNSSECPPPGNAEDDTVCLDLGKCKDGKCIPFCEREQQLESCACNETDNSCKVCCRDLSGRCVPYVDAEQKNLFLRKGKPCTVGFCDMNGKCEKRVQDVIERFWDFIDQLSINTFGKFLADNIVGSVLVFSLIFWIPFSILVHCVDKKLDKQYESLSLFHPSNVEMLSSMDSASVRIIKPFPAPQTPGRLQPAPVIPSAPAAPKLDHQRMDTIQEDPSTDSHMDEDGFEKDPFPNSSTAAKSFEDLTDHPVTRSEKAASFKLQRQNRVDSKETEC

[10] = molecular target: Ras and Rab interactor 1/Tyrosine-protein kinase ABL1 (Homo sapiens, UniProt P00519+Q13671); assay type: functional;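 further: biochemical TR-FRET dose-response test measuring inhibition of binding between Rin1 and Abl proteins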
Ras and Rab interactor 1/Tyrosine-protein kinase ABL1, sequence (P00519 whole entry): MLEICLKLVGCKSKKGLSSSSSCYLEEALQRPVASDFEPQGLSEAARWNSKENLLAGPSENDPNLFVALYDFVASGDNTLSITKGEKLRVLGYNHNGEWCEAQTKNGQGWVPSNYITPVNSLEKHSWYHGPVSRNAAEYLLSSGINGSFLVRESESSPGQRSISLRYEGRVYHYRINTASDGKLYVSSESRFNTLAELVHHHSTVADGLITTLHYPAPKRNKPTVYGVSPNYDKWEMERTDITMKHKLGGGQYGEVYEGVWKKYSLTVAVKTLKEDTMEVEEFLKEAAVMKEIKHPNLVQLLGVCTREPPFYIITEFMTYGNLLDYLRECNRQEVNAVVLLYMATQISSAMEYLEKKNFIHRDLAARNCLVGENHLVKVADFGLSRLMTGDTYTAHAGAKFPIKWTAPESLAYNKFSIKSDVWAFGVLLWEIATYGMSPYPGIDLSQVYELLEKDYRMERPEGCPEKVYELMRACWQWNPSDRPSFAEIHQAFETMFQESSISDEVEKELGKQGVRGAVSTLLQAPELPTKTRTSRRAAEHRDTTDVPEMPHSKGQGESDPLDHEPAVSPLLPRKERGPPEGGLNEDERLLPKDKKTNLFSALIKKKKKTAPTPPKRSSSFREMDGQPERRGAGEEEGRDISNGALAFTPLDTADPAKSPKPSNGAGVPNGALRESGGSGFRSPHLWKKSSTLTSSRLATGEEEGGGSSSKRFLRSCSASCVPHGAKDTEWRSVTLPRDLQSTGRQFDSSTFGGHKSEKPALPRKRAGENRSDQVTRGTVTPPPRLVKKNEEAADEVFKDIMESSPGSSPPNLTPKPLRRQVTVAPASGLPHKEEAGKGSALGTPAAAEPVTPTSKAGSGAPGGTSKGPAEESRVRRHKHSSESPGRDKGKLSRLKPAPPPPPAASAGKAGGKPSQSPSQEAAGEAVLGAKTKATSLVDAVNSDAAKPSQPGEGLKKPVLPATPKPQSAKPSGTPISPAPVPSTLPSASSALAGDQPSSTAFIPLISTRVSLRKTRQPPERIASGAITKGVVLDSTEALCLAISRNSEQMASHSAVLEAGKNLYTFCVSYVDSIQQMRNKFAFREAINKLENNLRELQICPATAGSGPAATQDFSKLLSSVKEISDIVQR
Ras and Rab interactor 1/Tyrosine-protein kinase ABL1, sequence (Q13671 whole entry): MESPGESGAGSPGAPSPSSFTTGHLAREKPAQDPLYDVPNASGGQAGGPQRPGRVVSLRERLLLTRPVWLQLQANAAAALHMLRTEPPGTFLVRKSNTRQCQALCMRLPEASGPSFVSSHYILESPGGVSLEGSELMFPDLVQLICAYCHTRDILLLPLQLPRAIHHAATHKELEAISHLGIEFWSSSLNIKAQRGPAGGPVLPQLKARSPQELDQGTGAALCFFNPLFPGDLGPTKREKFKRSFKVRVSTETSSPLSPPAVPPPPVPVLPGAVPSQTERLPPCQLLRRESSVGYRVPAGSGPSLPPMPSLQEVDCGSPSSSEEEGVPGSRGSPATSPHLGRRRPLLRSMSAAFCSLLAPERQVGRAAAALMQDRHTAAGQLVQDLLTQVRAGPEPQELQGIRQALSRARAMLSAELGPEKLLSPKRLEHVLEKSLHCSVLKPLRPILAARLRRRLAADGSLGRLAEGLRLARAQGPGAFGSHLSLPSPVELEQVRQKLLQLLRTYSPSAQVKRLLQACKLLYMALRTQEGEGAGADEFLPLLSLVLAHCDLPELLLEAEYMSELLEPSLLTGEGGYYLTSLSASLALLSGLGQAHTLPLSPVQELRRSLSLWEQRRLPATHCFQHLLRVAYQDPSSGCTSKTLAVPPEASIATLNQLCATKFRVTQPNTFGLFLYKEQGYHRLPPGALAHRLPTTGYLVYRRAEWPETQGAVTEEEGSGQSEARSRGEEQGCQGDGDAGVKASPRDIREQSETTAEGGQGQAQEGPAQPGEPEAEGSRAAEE

[11] = P. falciparum Dd2 growth inhibitors, dose response, SYBR Green, cherry-picked samples (AID 1159567); assay type: functional, cell-based
[12] = cytotoxicity in OVCAR8 ovarian cancer cells, dose response, PAX8 project, cell-based, plate reader, dry powder samples (AID 743197); assay type: functional; conditions: OVCAR-8
[13] = NIH:OVCAR-3 ovarian cancer cell cytotoxicity, dose response, PAX8 inhibitor project, plate reader, dry powder samples (AID 743044); assay type: functional, cell-based
[14] = molecular target: Paired box protein Pax-8 (Homo sapiens, UniProt Q06710); assay: inhibitors of PAX8-driven TPO luciferase reporter, dose response, RMG-I cells, cherry-pick (AID 687027); assay type: functional, cell-based;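 further: luciferase reporter driven by Pax8 target thyroperoxidase promoter measured by SteadyGlo luminescence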
Paired box protein Pax-8, sequence (Q06710 whole entry): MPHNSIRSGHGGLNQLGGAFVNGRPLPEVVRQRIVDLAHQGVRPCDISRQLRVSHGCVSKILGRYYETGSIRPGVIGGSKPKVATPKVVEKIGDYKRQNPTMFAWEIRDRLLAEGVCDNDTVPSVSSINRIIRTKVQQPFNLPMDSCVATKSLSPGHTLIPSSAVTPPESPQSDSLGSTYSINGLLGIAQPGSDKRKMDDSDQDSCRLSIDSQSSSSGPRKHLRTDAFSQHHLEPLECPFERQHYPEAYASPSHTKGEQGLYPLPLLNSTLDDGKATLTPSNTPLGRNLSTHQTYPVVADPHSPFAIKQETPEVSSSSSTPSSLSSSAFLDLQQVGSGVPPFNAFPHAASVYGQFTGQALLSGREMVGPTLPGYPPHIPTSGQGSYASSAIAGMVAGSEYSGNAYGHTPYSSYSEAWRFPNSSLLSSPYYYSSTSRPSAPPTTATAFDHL

With `CC(C)C1N=C(c2ccc3c(c2)OCO3)CC(c2ccccc2O)N1` (configuration not stated) the CC50 [1] was 14.7 µM (active), the CC50 [2] was 13.8 µM (active) and the EC50 [3] was 4.62 µM (active). For the same compound, the IC50 [4] was > 25 µM (active), the EC50 [5] was 15.4 µM (active) and the EC50 [6] was 16.6 µM (active).
With `Nc1ccccc1C=C1Cc2ccccc2C1=O` the IC50 [7] was > 67.6 µM (inactive).
With `OC(c1ccc(F)c(F)c1)c1nc(-c2cccc(C(F)(F)F)c2)cs1` (configuration not stated) the IC50 [8] was 12.1 µM (inactive) and the IC50 [9] was 50.5 µM (inactive).
With `CC(=O)c1cccc(-c2ccnc3c2CC(C(=O)NCc2ccc(N4CCN(C)CC4)cc2)O3)c1` (configuration not stated) the IC50 [10] was 29.9 µM (inactive).
For `COc1cc(/C=N/NC(=O)CSc2ccccn2)ccc1OC(C)C`, the IC50 [10] was 19.1 µM (inactive).
With `Oc1nc2ccccc2n1C1CCN(C(c2nnnn2C2CCCC2)C2CC2)CC1` (configuration not stated) the IC50 [10] was 17.3 µM (inactive).
With `CC(C)CC#Cc1ccc2c(c1)O[C@H](CN(C)S(=O)(=O)c1ccc(F)cc1)[C@@H](C)CN([C@@H](C)CO)S2(=O)=O` the AC50 [11] was 5.25 µM (active), the AC50 [12] was > 70 µM (inactive) and the AC50 [13] was 49.7 µM (active). The AC50 [14] was 10.3 µM (active).
For `CCOc1ccc(-n2c(SCC(=O)Nc3cc(C)c(NC(=O)c4ccccc4)cc3OC)nnc2-c2cccs2)cc1`, the IC50 [8] was > 69.5 µM (inactive) and the IC50 [9] was > 69.5 µM (inactive).
In the case of `Nc1[nH]c(C(=O)c2ccc(Br)cc2)c(-c2ccccn2)c1C(=O)NCCc1c[nH]c2ccccc12`, the IC50 [8] is reported as 16.4 µM (inactive) and the IC50 [9] is reported as > 69.5 µM (inactive).
With `C[C@@H]1CN([C@H](C)CO)C(=O)c2cc(NC(=O)Cc3ccccc3)ccc2O[C@@H](C)CCCCO[C@H]1CN(C)Cc1ccc(Cl)c(Cl)c1` the AC50 [12] was > 70 µM (inactive) and the AC50 [13] was 28.2 µM (active).
